ChEMBL document CHEMBL1142000, “(R)-2-(4-Phenylbutyl)dihydrobenzofuran derivatives as melatoninergic agents” (Bioorg Med Chem Lett, 2005)

Assays:
[1] = molecular target: Melatonin receptor type 1A (Homo sapiens, UniProt P48039); assay: Binding affinity against Melatonin receptor type 1A stably expressed in NIH3T3 cells using 2-[125I]iodomelatonin; format: cell-based
[2] = molecular target: T1, Melatonin receptor type 1B (Homo sapiens, UniProt P49286); assay: Binding affinity against Melatonin receptor type 1B stably expressed in NIH3T3 cells using 2-[125I]iodomelatonin; format: cell-based
T1 sequence (P49286 whole entry): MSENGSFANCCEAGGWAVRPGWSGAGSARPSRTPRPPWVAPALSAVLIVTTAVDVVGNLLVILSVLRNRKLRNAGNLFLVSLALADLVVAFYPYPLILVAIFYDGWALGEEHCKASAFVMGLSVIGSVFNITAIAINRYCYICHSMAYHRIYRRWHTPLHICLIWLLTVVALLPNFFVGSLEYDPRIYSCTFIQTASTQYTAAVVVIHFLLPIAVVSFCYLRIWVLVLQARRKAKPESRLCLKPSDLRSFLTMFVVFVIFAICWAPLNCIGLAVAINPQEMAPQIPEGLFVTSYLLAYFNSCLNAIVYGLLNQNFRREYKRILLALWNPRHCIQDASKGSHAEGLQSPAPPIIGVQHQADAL

Melatonin receptor type 1A, sequence (P48039 whole entry): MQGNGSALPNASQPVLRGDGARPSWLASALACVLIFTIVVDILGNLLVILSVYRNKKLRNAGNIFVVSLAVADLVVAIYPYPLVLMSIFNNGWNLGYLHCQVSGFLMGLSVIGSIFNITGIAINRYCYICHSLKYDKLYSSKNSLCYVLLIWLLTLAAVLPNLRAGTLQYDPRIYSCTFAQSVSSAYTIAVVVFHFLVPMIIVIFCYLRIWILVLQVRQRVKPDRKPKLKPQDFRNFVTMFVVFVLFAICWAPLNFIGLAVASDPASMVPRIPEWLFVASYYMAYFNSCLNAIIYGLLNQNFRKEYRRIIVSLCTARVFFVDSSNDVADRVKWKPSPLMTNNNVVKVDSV

Row | SMILES | Ki [1] [nM] | Ki [2] [nM]
1 | O=C(NC[C@@H]1C[C@H]1c1cccc2c1C[C@@H](CCCCc1ccccc1)O2)C1CC1 | 1 | 5
2 | CCNC(=O)NCCCc1cccc2c1C[C@@H](CCCCc1ccccc1)O2 | 9 | 40
3 | CCNC(=O)NC[C@@H]1C[C@H]1c1cccc2c1C[C@@H](CCCCc1ccccc1)O2 | 9 | 40
4 | CC(C)C(=O)NC[C@@H]1C[C@H]1c1cccc2c1C[C@@H](CCCCc1ccccc1)O2 | 6 | 90
5 | O=C(NCCCc1cccc2c1C[C@@H](CCCCc1ccccc1)O2)C1CC1 | 2 | 30
6 | CCC(=O)NC[C@@H]1C[C@H]1c1cccc2c1C[C@@H](CCCCc1ccccc1)O2 | 1 | 2

Continued by falling Ki [1], values first:

Row | Ki [1] [nM] | Ki [2] [nM] | SMILES
7 | 60 | 90 | CCNC(=O)NC[C@@H]1C[C@H]1c1c(Cl)ccc2c1C[C@@H](CCCCc1ccccc1)O2
8 | 4 | 40 | CC(C)C(=O)NCCCc1cccc2c1C[C@@H](CCCCc1ccccc1)O2
9 | 4 | 8 | CC(=O)NCCCc1cccc2c1C[C@@H](CCCCc1ccccc1)O2
10 | 2 | 30 | CCCC(=O)NCCCc1cccc2c1C[C@@H](CCCCc1ccccc1)O2
11 | 2 | 2 | CCCC(=O)NC[C@@H]1C[C@H]1c1cccc2c1C[C@@H](CCCCc1ccccc1)O2
12 | 1 | 2 | CC(=O)NC[C@@H]1C[C@H]1c1cccc2c1C[C@@H](CCCCc1ccccc1)O2
13 | 1 | 20 | CCC(=O)NCCCc1cccc2c1C[C@@H](CCCCc1ccccc1)O2
